Measurements from the supplement of paper PMC11451515.

Legend:
[1] = test system: NOMO1; experiment: AUC of viability dose-response curve (% viability x log10 dose units); higher = less sensitive; conditions: 48 h
Procedure, shortened: (§1)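 In 1536-well plates, leukemia cells adapted to each medium (500 or 1000 cells/well) were exposed for 48 h at 37°C to library compounds in DMSO across 11 threefold doses, 47 μM down to 0.79 nM. Viability was read by CellTiter-Glo One luminescence and normalised per plate to DMSO and cell-free wells. A four-parameter log-logistic fit over log10 doses was integrated by trapezoidal rule. This yielded the area under the curve, with over-full-viability curves scaled and quality-control failures dropped.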

[2] = test system: SEM cells; experiment: as above; conditions: 48 h
Procedure, shortened: as §1

[3] = RPMI 5 mM glucose + 10% dialyzed FBS

SMILES	AUC of viability dose-response curve ([1]; HPLM + 10% dialyzed FBS)	AUC of viability dose-response curve ([1]; RPMI 5 mM glucose + 10% FBS)	AUC of viability dose-response curve [1, 3]	AUC of viability dose-response curve ([2]; HPLM + 10% dialyzed FBS)	AUC of viability dose-response curve ([2]; RPMI 5 mM glucose + 10% FBS)	AUC of viability dose-response curve [2, 3]
CC(C)(C)C(=O)Oc1ccc2c(c1)nc(NC(=O)c1cccc([N+](=O)[O-])c1)n2CCCO	461	459	458	448	452	418
C[C@]12CC[C@@H]3c4ccc(OC(=O)N(CCCl)CCCl)cc4CC[C@H]3[C@@H]1CC[C@@H]2OP(=O)([O-])[O-].[Na+].[Na+]	406	460	455	429	397	382
CN\1C(=O)/C(=C(\N=C1N2CCCC[S+]2([O-])=O)C(=O)NCC3=CC=C(F)C=C3)O	441	475	451	471	458	466
CC1=NN(c2ccc(C)c(C)c2)C(=O)/C1=N/Nc1cccc(-c2cccc(C(=O)O)c2)c1O	431	448	428	453	448	442
CC(C)c1cnn2c(NCc3ccccc3)cc(N[C@@H](CO)[C@H](O)CO)nc12	297	303	302	299	290	299
C[C@]12C[C@H](O)[C@H]3[C@@H](CC\C4=C\C(=O)\C=C/[C@]34C)[C@@H]1CC[C@]2(O)C(=O)CO	446	456	449	389	380	359
NC[C@H]1CC[C@H](C(=O)O)CC1	455	475	448	443	456	456
CN(c1ncccc1CNc1nc(Nc2ccc3c(c2)CC(=O)N3)ncc1C(F)(F)F)[S+](C)(=O)[O-]	451	448	446	362	342	321
CC(C)n1c(/C=C/[C@H](O)C[C@H](O)CC(=O)O)c(-c2ccc(F)cc2)c2ccccc21	428	457	448	430	426	441
C[C@H](O)[C@H]1[C@@H]2[C@H](C)C(=C(\N2C1=O)C(O)=O)/S[C@@H]3CN[C@H](CN[S+](N)([O-])=O)C3	439	443	452	443	453	420
COc1ccc(Cc2ccc(NC(N)=O)cc2)cc1-c1cccc(Cl)c1	472	471	476	458	465	469
ClC1=C(N\C2=N\CCN2)C3=NSN=C3C=C1	434	440	428	419	427	432
